From PMC5579037, “Modification of the response of olfactory receptors to acetophenone by CYP1a2” (Scientific Reports, 2017)

Columns and labels:
Assay type in all cases: cell-based
[1] = target: T1, MOR161-2 (Mus musculus, UniProt Q7TRE6); test: CRE-luciferase reporter assay in Hana3A cells; conditions: no CYP co-expressed; RTP1S and M3-R; 3 h, 37 °C; agonist
T1 construct: gene Or8b12; Hana3A cells with RTP1S and M3-R
T1 sequence (Q7TRE6 1-310): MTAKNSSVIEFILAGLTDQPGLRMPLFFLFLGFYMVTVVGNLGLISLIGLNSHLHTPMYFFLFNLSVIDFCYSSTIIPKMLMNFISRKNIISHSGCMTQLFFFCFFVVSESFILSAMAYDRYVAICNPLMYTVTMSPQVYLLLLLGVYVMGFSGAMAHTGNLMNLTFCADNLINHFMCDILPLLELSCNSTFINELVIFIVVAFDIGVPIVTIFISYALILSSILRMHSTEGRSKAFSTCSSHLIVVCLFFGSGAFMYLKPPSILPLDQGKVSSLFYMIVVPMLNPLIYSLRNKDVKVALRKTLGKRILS

[2] = target: T2, CYP1a2 (Mus musculus, UniProt P00186); test: P450-Glo luminescence assay in transfected Hana3A cells; conditions: CD293 medium, 3 h, 37 °C; against mock transformant
T2 construct: cDNA from mouse olfactory epithelium library, pCI vector, expressed in Hana3A cells
T2 sequence (P00186 2-513): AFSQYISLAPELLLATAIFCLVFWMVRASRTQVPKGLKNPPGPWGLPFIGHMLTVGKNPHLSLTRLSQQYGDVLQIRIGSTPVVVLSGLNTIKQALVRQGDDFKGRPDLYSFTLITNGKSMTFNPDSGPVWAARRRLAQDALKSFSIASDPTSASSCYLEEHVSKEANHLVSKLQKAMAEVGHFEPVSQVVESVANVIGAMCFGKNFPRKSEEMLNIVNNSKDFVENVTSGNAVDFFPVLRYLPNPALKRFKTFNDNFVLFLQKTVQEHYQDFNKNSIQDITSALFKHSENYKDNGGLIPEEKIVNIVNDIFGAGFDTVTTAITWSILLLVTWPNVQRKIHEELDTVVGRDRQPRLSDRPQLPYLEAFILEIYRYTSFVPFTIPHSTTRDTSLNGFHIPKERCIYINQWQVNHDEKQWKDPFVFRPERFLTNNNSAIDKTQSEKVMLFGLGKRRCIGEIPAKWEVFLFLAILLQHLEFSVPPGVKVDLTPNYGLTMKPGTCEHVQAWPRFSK

[3] = target: T3, MOR123-2 (Mus musculus, UniProt E9Q8M2); test: CRE-luciferase reporter assay in Hana3A cells; conditions: no CYP co-expressed; RTP1S and M3-R; 3 h, 37 °C; agonist
T3 construct: gene Or10aa3; ORF from mouse genomic DNA, N-terminal Rho-tag, pCI; Hana3A cells with RTP1S and M3-R
T3 sequence (E9Q8M2 1-312): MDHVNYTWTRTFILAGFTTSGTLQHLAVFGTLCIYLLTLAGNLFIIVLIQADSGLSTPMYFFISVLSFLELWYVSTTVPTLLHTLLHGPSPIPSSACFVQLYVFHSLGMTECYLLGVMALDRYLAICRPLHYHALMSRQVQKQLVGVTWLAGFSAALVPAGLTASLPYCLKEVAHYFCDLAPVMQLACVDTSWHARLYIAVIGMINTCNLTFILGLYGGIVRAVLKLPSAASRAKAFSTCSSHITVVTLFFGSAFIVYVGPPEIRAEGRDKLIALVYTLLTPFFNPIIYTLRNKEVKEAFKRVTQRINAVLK

[4] = target: T4, MOR164-2 (Mus musculus, UniProt Q7TRB9); test: CRE-luciferase reporter assay in Hana3A cells; conditions: no CYP co-expressed; RTP1S and M3-R; 3 h, 37 °C; agonist
T4 construct: gene Or8b56; ORF from mouse genomic DNA, N-terminal Rho-tag, pCI; Hana3A cells with RTP1S and M3-R
T4 sequence (Q7TRB9 1-317): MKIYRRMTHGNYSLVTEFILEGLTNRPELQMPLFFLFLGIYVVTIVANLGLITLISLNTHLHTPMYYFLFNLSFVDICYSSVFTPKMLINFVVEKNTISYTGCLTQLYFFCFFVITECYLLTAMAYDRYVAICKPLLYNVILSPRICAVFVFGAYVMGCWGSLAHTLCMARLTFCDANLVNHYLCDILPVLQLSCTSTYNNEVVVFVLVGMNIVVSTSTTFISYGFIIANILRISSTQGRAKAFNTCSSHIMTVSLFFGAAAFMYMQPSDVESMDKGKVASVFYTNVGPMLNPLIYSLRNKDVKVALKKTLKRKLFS

SMILES	CRE-luciferase reporter assay in Hana3A cells [1]	P450-Glo luminescence assay in transfected Hana3A cells [2]	CRE-luciferase reporter assay in Hana3A cells [3]	CRE-luciferase reporter assay in Hana3A cells [4]
COC(=O)c1ccccc1 [methyl benzoate]	Potential intermediates are methyl benzoate and salicylate, and indeed MOR161-2 responded to both of them.			
COc1ccc2nc(C3=NC(C(=O)O)CS3)sc2c1 (stereo not shown) [luciferin-ME]		Functional expression of CYP1a2 in Hana3A cells was confirmed by the P450-Glo assay using luciferin-ME		
O=C(O)c1ccccc1O [salicylic acid]	Potential intermediates are methyl benzoate and salicylate, and indeed MOR161-2 responded to both of them.			
COC(=O)c1ccccc1O [methyl salicylate]	MOR161-2 showed a larger response to methyl salicylate than acetophenone.			
CC(=O)c1ccccc1 [acetophenone]	We compared the response of MOR161-2 against acetophenone and methyl salicylate.		We observed effects of CYPs on the responses of MOR123-2, MOR161-2 and MOR164-2.	We observed effects of CYPs on the responses of MOR123-2, MOR161-2 and MOR164-2.
